According to publication PMC7913925, “Design and Evaluation of a Polypeptide That Mimics the Integrin Binding Site for EDA Fibronectin to Block Profibrotic Cell Activity” (International Journal of Molecular Sciences, 2021):
Bridges are numbered along the chain shown (N, C = ends). Where no end group is shown, it is not given here.

What was measured:
[1] = target: COL-RGD (RGD motif of collagen I) (Homo sapiens, UniProt P02452); assay: Isothermal calorimetry, AF38Pep with COL-RGD; assay type: binding; settings: 25 °C, pH 7
Method: Custom designed peptides were resuspended in sterile-filtered HEPES buffered saline (140 mM NaCl, 1.5 mM Na2HPO4, 50 mM HEPES; pH 7). The larger EDA-FN binding peptide was diluted to 15 µM, degassed and added to the calorimetry chamber well. Three smaller test peptides (fibronectin EDA-peptide, FN-EDA; fibronectin RGD-peptide, FN-RGD and collagen I RGD-peptide, COL-RGD) were diluted to 300 µM, degassed and each was separately loaded into the calorimetry injection needle. The chamber well temperature was kept consistent at 25 °C. Blank buffer was used to replace either the well peptide or the injection needle peptide to account for background heat generation. Isothermal titration calorimetry was performed using a MicroCal iTC200 (Malvern Panalytical, Malvern, UK) and dissociation constant (KD) and association constant (KA) were calculated using the one set of sites model fitting (with number of binding sites assumed to be 1) in MicroCal Origin Software v8.5 (Malvern Panalytical).

[2] = test system: FAK in NIH/3T3 fibroblasts; assay: Western blot FAK phosphorylation and total protein; assay type: cell-based, mouse; settings: TGF-β1 10 ng/mL, AF38Pep 10 µg/mL
Method: (§1) Total protein was extracted from cells in RIPA lysis buffer containing 1% protease inhibitor cocktail, 1% phenylmethylsulfonyl fluoride, and 1% sodium orthovanadate (Santa Cruz Biotechnology, Santa Cruz, CA, USA). Protein was quantified by Micro BCA Protein Assay Kit (Thermo Fisher Scientific) before 7.5% SDS-PAGE and transfer to nitrocellulose. Membranes were blocked with 5% bovine serum albumin (BSA; Sigma-Aldrich)/0.5% Tween-20 (Sigma-Aldrich)/PBS for 1 h, RT, followed by incubation with primary antibodies diluted in 1% BSA/0.1% Tween-20/PBS, overnight at 4 °C. Primary antibodies were: anti-phosphoY204/Y187 ERK1/2 (1:1000); anti-ERK1/2 (1:1000); anti-phosphoY861 FAK (1:1000); anti-FAK (1:2000). Immunoblotting for anti-GAPDH (1:2500) was used as a protein loading control. Following wash steps, membranes were incubated in goat anti-rabbit IgG H&L secondary antibody (horseradish peroxidase, HRP conjugate, […]) (Abcam; 1:5000 dilution, 1% BSA/0.1% Tween-20/PBS). Detection was performed using Immobilon reagent (Merck Millipore, Burlington, MA, USA) and imaged using a Tanon 5500 Chemiluminescent Imaging System (Tanon, Shanghai, China).

[3] = test system: Ltbp1 mRNA in NIH/3T3 fibroblasts; assay: qRT-PCR Ltbp1 mRNA; assay type: cell-based, mouse; settings: 48 h, TGF-β1 10 ng/mL
Method: Reverse transcription (RT) and real-time quantitative PCR (qRT-PCR) were used to assess ACTA2/Acta2, Col1a1, Col3a1, Fn1, Eda-Fn1, Mmp9, Tgfb1, Ltbp1, Hic5, and Mrtfa mRNA expressions. Custom PCR primers were designed in-house (Table 2) and then synthesized by BGI (Beijing, China). Cells were grown in 6-well culture plates and washed with phosphate buffered saline (PBS) before lysis with TRIzon Reagent (CWBio, Beijing, China) and total RNA purification according to the manufacturer’s protocol. Reverse transcription was carried using the TransScript First-Strand cDNA Synthesis SuperMix kit according to the manufacturer’s protocol (TransGen, Beijing, China), using the random primer method for the initiation of cDNA synthesis. Nuclease-free H2O replaced the RNA sample to serve as a negative control for the reverse transcription reaction. For qRT-PCR, 10 µL 2× TransStart Top Green qPCR SuperMix was added to each well of a 96-well PCR plate containing 0.4 µL forward primer, 0.4 µL reverse primer, […], and nuclease-free water to a total volume of 20 µL. The qRT-PCR reaction was completed using a CFX96 Real-Time PCR Detection System (Bio-Rad Laboratories, Hercules, CA, USA). Amplification used the following parameters: 94 °C for 30 s, followed by 40 cycles of 94 °C for 5 s, 55 °C for 15 s, 72 °C for 10 s, and then a dissociation stage (melt-curve). […]

[4] = test system: mouse NIH/3T3 dermal fibroblast cells; assay: Cytotoxicity/proliferation assay (CCK-8) NIH/3T3; assay type: cell-based; settings: TGF-β1 stimulated NIH/3T3, over 72 h
Method: HFL1 cells were cultured in Kaighn’s modified Ham’s F-12 (F-12K) medium (Sigma-Aldrich) containing NaHCO3 and HEPES buffered to pH 7. Cells were grown to confluence in T75 culture flasks in the presence of 10% fetal bovine serum (FBS; Gibco, Thermo Fisher Scientific, Waltham, MA, USA). HFL1 cells were subcultured using 0.05% trypsin at a ratio of 1:3. NIH/3T3 cells were cultured in Dulbecco’s Modified Eagle Medium (DMEM; HyClone, Thermo Fisher Scientific) containing 100 U/mL penicillin and 100 μg/mL streptomycin. Cells were grown to confluence in T75 culture flasks in the presence of 10% FBS. NIH/3T3 cells were subcultured using 0.05% trypsin/EDTA at a ratio of 1:3. All cells were maintained at 37 °C and 5% CO2, and growth medium was replenished every 3 days until experimentation. Cells were growth-arrested in serum-free medium for 48 h before experiments, and all experiments were performed under serum-free conditions using cells between passages 3 and 8.
Cells were seeded into 12-well culture plates at a density of 2.5 × 10^4 and when cultures reached 50% confluence, the culture medium was replaced with fresh serum-free F12K or serum-free DMEM/F12 for 48 h (growth arrest). […] Absorbance was measured at 450 nm wavelength using a Bio-Rad optical plate reader.

[5] = test system: ERK1/2 in NIH/3T3 fibroblasts; assay: Western blot ERK1/2 phosphorylation; assay type: cell-based, mouse; settings: TGF-β1 10 ng/mL, AF38Pep 10 µg/mL
Method: as §1

## VMPYISTTPAKPCTSENCGNSWYGGFKSKNENKIYFIN (disulfide 13-18 (inferred)) [AF38Pep]
[1]
  ITC interaction (thermogram): not between AF38Pep and FN-RGD or COL-RGD
[2]; 1 h
  FAK phosphorylation: significantly suppressed
[2]; 12 h
  FAK phosphorylation: significantly less activation
  total FAK protein: marginally reduced
[3]
  LTBP1 mRNA expression: attenuated
[4]
  cytotoxicity/proliferation: did not interfere with cell proliferation nor incur cell death
[5]; 1 h
  ERK1/2 phosphorylation: significantly suppressed
[5]; 12 h
  ERK1/2 phosphorylation: not prevented
